We go through 9 compounds from patent US20170152269A1, “FUSED BICYCLIC COMPOUNDS AND THEIR USE AS CDK INHIBITORS” (priority 2016, published 2017).

For one experiment, the target named is T1, CDK7 (Homo sapiens, UniProt P50613).
T1 construct: purchased ThermoFisher (Waltham, Mass.)
The experiment is described as follows: Lance TR-FRET kinase assay, CDK7. Particulars: ATP 50 μM, 60 min; for IC50: read-out: CDK 7 inhibitory activity (IC50). It counts as biochemical. The procedure: (§1) Inhibitory activity of compounds against CDK1/2/4/5/6/7 was assessed using Lance TR-FRET assay kits from Perkin Elmer Life Sciences (Waltham, Mass.). CDK1/2/4/5/6/7 enzymes were purchased from ThermoFisher (Waltham, Mass.). […] Final concentrations of substrates and DMSO were 100 nM and 0.5%, respectively. Concentrations of ATP and different CDK enzymes were adjusted accordingly to achieve optimal enzymatic activities. Final CDK concentrations were 100, 500, 600, 100, 50, and 200 ng/well and ATP concentrations were 30, 50, 100, 20, 100, and 50 μM for CDK1/2/4/5/6/7, respectively. Assay plates were covered to protect from light and spun for 1 min at 700 RPM. Reactions were allowed to perform for 60 minutes in dark with gentle shaking at room temperature after which 5 μL of 40 mM EDTA in detection buffer was added to stop reactions followed 5 μL of the Eu labeled antibodies giving final concentrations of 2 nM to detect the phosphorylation of the peptide substrates. […] The percent of inhibition was calculated from the means of data points using the formula: 100−(Signalcompound−NoSignalbackground)*100/(Signalvehicle−NoSignalbackground). The IC50s were determined with GraphPad Prism by the non-linear sigmoidal curve fitting of data from 10 doses.

The target in another experiment is T2, CDK5 (Homo sapiens, UniProt Q00535).
T2 construct: purchased ThermoFisher (Waltham, Mass.)
The experiment is described as follows: Lance TR-FRET kinase assay, CDK5. Type of experiment: biochemical. Particulars: ATP 20 μM, 60 min, read-out: CDK 5 inhibitory activity (IC50). The procedure:
(§2) Time Resolved-Fluorescent Resonance Energy Transfer (TR-FRET) was used to determine inhibitory ability of compounds A1˜A19, B1s and B1˜B12 against the enzymatic activity of CDK1, CDK2, CDK4, CDK5, CDK6, CDK7, and CDK9.
(§3) Inhibitory activity of compounds against CDK1/2/4/5/6/7 was assessed using Lance TR-FRET assay kits from Perkin Elmer Life Sciences (Waltham, Mass.). CDK1/2/4/5/6/7 enzymes were purchased from ThermoFisher (Waltham, Mass.). 2.5 μL of compound solutions and 2.5 μL of enzyme solutions in kinase assay buffer, which was 50 mM HEPES (pH 7.5) with 1 mM EGTA, 1 mM MgCl2, 2 mM DTT, and 0.01% Tween-20, were added into a white OptiPlate-384 plate followed by adding 5 μL of fluorescently labeled peptide substrates (Ulight-4E-BP1 for CDK4/6 and Ulight-MBP for […]) and ATP mixture solutions. Final concentrations of substrates and DMSO were 100 nM and 0.5%, respectively. Concentrations of ATP and different CDK enzymes were adjusted accordingly to achieve optimal enzymatic activities. Final CDK concentrations were 100, 500, 600, 100, 50, and 200 ng/well and ATP concentrations were 30, 50, 100, 20, 100, and 50 μM for CDK1/2/4/5/6/7, respectively. Assay plates were covered to protect from light and spun for 1 min at 700 RPM. Reactions were allowed to perform for 60 minutes in dark with gentle shaking at room temperature after which 5 μL of 40 mM EDTA in detection buffer was added to stop reactions followed 5 μL of the Eu labeled antibodies giving final concentrations of 2 nM to detect the phosphorylation of the peptide substrates. Assay plates were read with the EnVision™ Multilabel Reader in TR-FRET mode (excitation at 320 nm and emission at 665 nm). The percent of inhibition was calculated from the means of data points using the formula: 100−(Signalcompound−NoSignalbackground)*100/(Signalvehicle−NoSignalbackground). The IC50s were determined with GraphPad Prism by the non-linear sigmoidal curve fitting of data from 10 doses.
In general terms: Time-resolved FRET reads energy transfer from a long-lived donor to a nearby acceptor.

The target of a further experiment is T3, CDK9/cyclin T1 (Homo sapiens, UniProt P50750).
T3 construct: purchased ThermoFisher (Waltham, Mass.)
Kind of experiment: LanthaScreen Eu kinase binding assay, CDK9. The conditions noted are these: tracer 236 displacement, CDK9/cyclin T1 5 nM, 1 hour; read-out: CDK 9 inhibitory activity (IC50). The procedure: as §2
The CDK9 kinase inhibitory activity of compounds was tested in the LanthaScreen Eu kinase binding assay from ThermoFisher. LanthaScreen® Eu Kinase binding assays are based on the binding and displacement of a proprietary, Alexa Fluor® 647-labeled, ATP-competitive kinase inhibitor scaffold (kinase tracer) to CDK9. CDK9/cyclin T1, Kinase tracer 236 and LanthaScreen® Eu-anti-His Antibody were purchased form ThermoFisher (Waltham, Mass.). 5 μL of CDK9/cyclin T1 (final 5 nM)/antibody (final 2 nM) mixture, 5 μL of compound in kinase buffer, and 5 μL of tracer (final 30 nM) were added to wells of a white OptiPlate-384 plate in this specific order. Assay plates were covered to protect from light, spun for 1 min at 700 RPM and incubated at room temperature for 1 hour. Assay plates were read with the EnVision™ Multilabel Reader in TR-FRET mode (excitation at 320 nm and emission at 665 nm). The percent of inhibition was calculated from the means of data points using the formula: 100−(Signalcompound−NoSignalbackgound)*100/(Signalvehicle−NoSignalbackground). The IC50s were determined with GraphPad Prism by the non-linear sigmoidal curve fitting of data from 10 doses.

For a further experiment, the target named is T4, CDK4 (Homo sapiens, UniProt P11802).
T4 construct: purchased ThermoFisher (Waltham, Mass.)
Kind of experiment: Lance TR-FRET kinase assay, CDK4. Type of experiment: biochemical. Particulars: ATP 100 μM, 60 min, read-out: CDK 4 inhibitory activity (IC50). On the procedure: as §1

The target in a further experiment is T5, CDK1 (Homo sapiens, UniProt P06493).
T5 construct: purchased ThermoFisher (Waltham, Mass.)
Kind of experiment: Lance TR-FRET kinase assay, CDK1. The conditions noted are these: ATP 30 μM, 60 min, read-out: CDK 1 inhibitory activity (IC50). It counts as biochemical. The procedure: as §2, §3

A further experiment addresses T6, CDK6 (Homo sapiens, UniProt Q00534).
T6 construct: purchased ThermoFisher (Waltham, Mass.)
Kind of experiment: Lance TR-FRET kinase assay, CDK6. Type of experiment: biochemical. On the procedure: as §2, §3

Another experiment addresses T7, CDK2 (Homo sapiens, UniProt P24941).
T7 construct: purchased ThermoFisher (Waltham, Mass.)
Kind of experiment: Lance TR-FRET kinase assay, CDK2. It counts as biochemical. The conditions noted are these: ATP 50 μM, 60 min, read-out: CDK 2 inhibitory activity (IC50). On the procedure:
as §2, §3

T1 sequence (P50613 whole entry): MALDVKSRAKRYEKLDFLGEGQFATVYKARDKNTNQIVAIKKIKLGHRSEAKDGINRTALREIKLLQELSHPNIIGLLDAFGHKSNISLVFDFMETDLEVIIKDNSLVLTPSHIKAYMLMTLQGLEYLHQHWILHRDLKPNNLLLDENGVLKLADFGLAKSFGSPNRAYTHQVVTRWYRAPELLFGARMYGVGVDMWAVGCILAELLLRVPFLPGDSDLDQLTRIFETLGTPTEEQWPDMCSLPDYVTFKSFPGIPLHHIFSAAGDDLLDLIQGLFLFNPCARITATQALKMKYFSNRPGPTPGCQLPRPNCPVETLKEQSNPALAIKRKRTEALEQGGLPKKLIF
T1 sequence (P51946 whole entry partner): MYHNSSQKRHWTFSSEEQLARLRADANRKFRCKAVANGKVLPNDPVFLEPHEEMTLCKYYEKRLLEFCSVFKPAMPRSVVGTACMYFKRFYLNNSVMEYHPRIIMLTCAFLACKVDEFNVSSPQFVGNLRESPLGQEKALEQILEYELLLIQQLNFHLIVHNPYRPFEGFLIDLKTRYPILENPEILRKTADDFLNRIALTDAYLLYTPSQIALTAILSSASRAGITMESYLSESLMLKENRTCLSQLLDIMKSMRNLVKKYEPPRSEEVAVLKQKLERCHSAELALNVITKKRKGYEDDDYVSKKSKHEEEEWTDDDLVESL
T1 sequence (P51948 whole entry partner): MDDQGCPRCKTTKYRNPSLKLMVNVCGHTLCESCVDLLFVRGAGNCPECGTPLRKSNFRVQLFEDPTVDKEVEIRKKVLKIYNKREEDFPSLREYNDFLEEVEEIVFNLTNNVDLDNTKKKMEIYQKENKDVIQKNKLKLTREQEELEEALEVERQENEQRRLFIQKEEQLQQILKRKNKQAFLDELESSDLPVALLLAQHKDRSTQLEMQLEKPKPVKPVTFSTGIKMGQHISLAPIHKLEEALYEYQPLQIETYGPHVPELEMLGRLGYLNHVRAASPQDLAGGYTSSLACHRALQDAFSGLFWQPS
T4 sequence (P11802 whole entry): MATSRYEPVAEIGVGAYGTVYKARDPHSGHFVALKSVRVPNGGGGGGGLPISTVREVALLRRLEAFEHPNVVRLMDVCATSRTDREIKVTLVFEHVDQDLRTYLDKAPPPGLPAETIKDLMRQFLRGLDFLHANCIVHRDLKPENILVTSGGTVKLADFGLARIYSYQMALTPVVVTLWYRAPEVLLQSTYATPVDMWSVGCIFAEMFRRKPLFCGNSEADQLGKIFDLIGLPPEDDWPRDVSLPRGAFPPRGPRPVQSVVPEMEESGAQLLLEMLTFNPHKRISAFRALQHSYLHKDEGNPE
T4 sequence (P24385 whole entry partner): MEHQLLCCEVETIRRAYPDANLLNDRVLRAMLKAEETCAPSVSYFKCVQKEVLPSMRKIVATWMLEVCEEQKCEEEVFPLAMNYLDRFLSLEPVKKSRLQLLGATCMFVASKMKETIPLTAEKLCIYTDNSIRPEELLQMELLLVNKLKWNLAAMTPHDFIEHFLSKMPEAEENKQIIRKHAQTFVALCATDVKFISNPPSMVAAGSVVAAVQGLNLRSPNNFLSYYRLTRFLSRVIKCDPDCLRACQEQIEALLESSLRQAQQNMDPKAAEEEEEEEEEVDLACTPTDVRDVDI
T3 sequence (P50750 whole entry): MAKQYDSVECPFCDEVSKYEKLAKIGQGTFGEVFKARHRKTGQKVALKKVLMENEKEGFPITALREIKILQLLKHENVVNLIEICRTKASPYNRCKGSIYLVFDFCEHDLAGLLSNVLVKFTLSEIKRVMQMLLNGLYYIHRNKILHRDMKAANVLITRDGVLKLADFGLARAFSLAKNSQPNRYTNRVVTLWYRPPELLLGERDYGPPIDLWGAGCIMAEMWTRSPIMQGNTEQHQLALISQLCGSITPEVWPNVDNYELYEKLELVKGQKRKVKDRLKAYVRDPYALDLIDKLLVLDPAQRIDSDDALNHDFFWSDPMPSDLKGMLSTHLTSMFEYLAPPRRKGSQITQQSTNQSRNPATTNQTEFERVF
T3 sequence (O60563 whole entry partner): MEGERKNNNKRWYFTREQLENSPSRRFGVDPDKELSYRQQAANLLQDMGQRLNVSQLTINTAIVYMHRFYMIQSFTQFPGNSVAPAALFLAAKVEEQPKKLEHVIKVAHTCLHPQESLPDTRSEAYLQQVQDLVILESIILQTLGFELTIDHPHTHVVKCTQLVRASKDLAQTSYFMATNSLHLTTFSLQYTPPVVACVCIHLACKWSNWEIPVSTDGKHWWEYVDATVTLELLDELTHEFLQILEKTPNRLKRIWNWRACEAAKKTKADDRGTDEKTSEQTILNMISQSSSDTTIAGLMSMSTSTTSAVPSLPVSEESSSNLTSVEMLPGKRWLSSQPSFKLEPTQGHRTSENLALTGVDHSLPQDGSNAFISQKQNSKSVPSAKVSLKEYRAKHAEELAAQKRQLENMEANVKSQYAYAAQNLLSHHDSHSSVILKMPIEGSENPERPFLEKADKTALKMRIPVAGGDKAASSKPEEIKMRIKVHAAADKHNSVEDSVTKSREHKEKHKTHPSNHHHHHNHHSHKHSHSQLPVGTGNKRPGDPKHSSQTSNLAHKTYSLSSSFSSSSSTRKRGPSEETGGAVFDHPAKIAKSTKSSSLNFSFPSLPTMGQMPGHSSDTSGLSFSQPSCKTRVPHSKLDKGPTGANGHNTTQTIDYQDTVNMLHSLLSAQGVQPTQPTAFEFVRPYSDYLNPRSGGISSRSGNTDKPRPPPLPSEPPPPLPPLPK
T5 sequence (P06493 whole entry): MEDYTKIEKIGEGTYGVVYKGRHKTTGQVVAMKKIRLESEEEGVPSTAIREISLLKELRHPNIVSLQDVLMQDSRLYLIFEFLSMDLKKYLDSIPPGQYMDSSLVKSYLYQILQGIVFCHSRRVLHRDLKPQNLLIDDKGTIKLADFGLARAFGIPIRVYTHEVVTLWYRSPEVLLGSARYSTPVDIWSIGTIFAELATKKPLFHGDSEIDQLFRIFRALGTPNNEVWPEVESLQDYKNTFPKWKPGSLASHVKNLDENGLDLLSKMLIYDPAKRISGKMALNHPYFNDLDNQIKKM
T5 sequence (P14635 whole entry partner): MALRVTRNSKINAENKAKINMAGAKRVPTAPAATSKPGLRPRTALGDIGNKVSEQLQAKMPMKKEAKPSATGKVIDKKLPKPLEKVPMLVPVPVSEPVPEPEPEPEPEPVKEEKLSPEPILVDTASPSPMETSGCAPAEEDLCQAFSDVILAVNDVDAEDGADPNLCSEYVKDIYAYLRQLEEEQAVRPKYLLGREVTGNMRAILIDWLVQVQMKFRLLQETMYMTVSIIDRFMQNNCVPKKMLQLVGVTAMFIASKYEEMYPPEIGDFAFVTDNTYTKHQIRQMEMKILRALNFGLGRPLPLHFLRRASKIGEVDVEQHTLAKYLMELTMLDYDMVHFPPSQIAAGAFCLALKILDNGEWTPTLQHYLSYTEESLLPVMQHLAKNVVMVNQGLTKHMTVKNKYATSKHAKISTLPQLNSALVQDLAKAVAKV
T2 sequence (Q00535 whole entry): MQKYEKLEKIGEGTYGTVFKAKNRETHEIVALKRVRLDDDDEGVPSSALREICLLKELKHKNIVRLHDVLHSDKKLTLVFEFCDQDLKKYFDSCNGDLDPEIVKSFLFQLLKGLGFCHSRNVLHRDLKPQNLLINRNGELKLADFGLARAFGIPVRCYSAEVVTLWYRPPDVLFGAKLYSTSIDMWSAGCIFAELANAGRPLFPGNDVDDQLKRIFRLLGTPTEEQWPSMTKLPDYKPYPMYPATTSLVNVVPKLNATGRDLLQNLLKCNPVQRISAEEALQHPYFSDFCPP
T2 sequence (Q15078 whole entry partner): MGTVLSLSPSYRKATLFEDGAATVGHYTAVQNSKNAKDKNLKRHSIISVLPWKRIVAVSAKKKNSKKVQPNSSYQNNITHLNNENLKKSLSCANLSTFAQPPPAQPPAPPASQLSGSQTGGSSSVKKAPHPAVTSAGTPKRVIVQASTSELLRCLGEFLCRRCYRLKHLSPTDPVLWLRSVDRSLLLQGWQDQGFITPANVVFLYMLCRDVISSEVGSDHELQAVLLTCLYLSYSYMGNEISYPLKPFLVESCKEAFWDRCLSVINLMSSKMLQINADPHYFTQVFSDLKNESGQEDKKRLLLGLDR
T6 sequence (Q00534 whole entry): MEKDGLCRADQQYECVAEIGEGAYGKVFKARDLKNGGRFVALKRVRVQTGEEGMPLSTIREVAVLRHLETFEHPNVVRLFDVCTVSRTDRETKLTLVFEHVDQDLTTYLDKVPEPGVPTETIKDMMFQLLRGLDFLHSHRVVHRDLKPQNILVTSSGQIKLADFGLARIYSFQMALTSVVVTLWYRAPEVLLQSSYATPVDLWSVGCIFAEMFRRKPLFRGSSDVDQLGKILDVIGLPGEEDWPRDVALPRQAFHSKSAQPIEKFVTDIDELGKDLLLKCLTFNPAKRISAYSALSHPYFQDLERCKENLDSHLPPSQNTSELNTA
T6 sequence (P24385 whole entry partner): as the sequence (P24385 whole entry partner) above

A word on the IC50: it is the concentration that gives 50% inhibition. Regarding `N#Cc1sc2cnc(Nc3ccc(N4CCNCC4)cn3)cc2c1C1CCCC1` [Compound B1, 3-cyclopentyl-5-((5-(piperazin-1-yl)pyridin-2-yl)amino)thieno[2,3-c]pyridine-2-carbonitrile], the IC50 on CDK7 came to 14.9 nM; on CDK5 it was 24.4 nM; at CDK9/cyclin T1, 1.3 nM; on CDK4, 1.1 nM; on CDK1, 5.4 nM; against CDK6 it was 0.3 nM. Also, at CDK2, the IC50 is 2.8 nM.
With `CS(=O)(=O)N1CCN(c2ccc(Nc3cc4c(C5CCCC5)c(C#N)sc4cn3)nc2)CC1` [Compound B11, 3-cyclopentyl-5-((5-(4-(methylsulfonyl)piperazin-1-yl)pyridin-2-yl)amino)thieno[2,3-c]pyridine-2-carbonitrile], the “CDK 7 inhibitory activity (IC50)” value on CDK7 was “inactive”. Further, the IC50 on CDK9/cyclin T1 was determined as 8.1 nM; at CDK4 it was 17.7 nM; at CDK1 it was 101 nM; at CDK6, 5.5 nM; at CDK2 it was 49.9 nM.
Turning to `N#Cc1sc2cnc(Nc3ccc(N4CCOCC4)nc3)cc2c1C1CCCC1` [Compound B7, 3-cyclopentyl-5-((6-morpholinopyridin-3-yl)amino)thieno[2,3-c]pyridine-2-carbonitrile], on CDK7, the “CDK 7 inhibitory activity (IC50)” value was “inactive”. Moreover, the IC50 is 95.6 nM on CDK9/cyclin T1; 61.9 nM at CDK4; 324 nM on CDK1; 19.4 nM against CDK6; 19.4 nM on CDK2.
For the compound `CN(C)C(=O)c1sc2cnc(Nc3ccc(N4CCNCC4)cn3)cc2c1C1CCCC1` [Compound A1, 3-cyclopentyl-N,N-dimethyl-5-((5-(piperazin-1-yl)pyridin-2-yl)amino)thieno[2,3-c]pyridine-2-carboxamide], the IC50 on CDK7 was found to be 1100 nM; on CDK5 it was 262 nM; at CDK9/cyclin T1, 5.3 nM; on CDK4, 1.2 nM; on CDK1 it was 162 nM; against CDK6, 0.66 nM. The IC50 at CDK2 was 346 nM.
Regarding `CN(C)C(=O)c1sc2cnc(Nc3ccc(N4CCNCC4)cn3)cc2c1C1CCCCC1` [Compound A5, 3-cyclohexyl-N,N-dimethyl-5-((5-(piperazin-1-yl)pyridin-2-yl)amino)thieno[2,3-c]pyridine-2-carboxamide], the IC50 was 3290 nM at CDK7; 266 nM at CDK5; 13.4 nM at CDK9/cyclin T1; 1.4 nM at CDK4; 39.5 nM on CDK1; 1.1 nM against CDK6. For the same compound, the IC50 on CDK2 was determined as 942 nM.
`N#Cc1sc2cnc(Nc3ccc(N4CCOCC4)cc3)cc2c1C1CCCC1` [Compound B6, 3-cyclopentyl-5-((4-morpholinophenyl)amino)thieno[2,3-c]pyridine-2-carbonitrile]: the “CDK 7 inhibitory activity (IC50)” value on CDK7 is “inactive”. The IC50 on CDK9/cyclin T1 was determined as 951 nM; on CDK4 it was 222 nM; at CDK1, 1680 nM; against CDK6, 19 nM; on CDK2, 39.6 nM.
Consider `N#Cc1sc2cnc(Nc3cccc(N4CCOCC4)c3)cc2c1C1CCCC1` [Compound B10, 3-cyclopentyl-5-((3-morpholinophenyl)amino)thieno[2,3-c]pyridine-2-carbonitrile], for which the “CDK 7 inhibitory activity (IC50)” value at CDK7 was “inactive”. The IC50 at CDK9/cyclin T1 amounted to 308 nM; at CDK4 it was 1540 nM; on CDK1, 834 nM; at CDK6, 838 nM; at CDK2, 308 nM.
For the compound `N#Cc1sc2cnc(Nc3cnc(N4CCOCC4)nc3)cc2c1C1CCCC1` [Compound B8, 3-cyclopentyl-5-((2-morpholinopyrimidin-5-yl)amino)thieno[2,3-c]pyridine-2-carbonitrile], the “CDK 7 inhibitory activity (IC50)” value on CDK7 is “inactive”. Also, the half-inhibitory concentration (IC50) at CDK9/cyclin T1 was 4590 nM; on CDK4, 8660 nM; at CDK1, 22000 nM; at CDK6, 791 nM; on CDK2, 824 nM.
For `CN1CCN(c2cccc(Nc3cc4c(C5CCCC5)c(C#N)sc4cn3)c2)CC1` [Compound B9, 3-cyclopentyl-5-((3-(4-methylpiperazin-1-yl)phenyl)amino)thieno[2,3-c]pyridine-2-carbonitrile], the IC50 on CDK7 came out at 872 nM; at CDK9/cyclin T1, 96.5 nM; at CDK4, 582 nM; on CDK1, 170 nM; against CDK6 it was 120 nM; on CDK2, 70.8 nM.
